How the values were obtained:
cleaved caspase-3 [1] = assay: BCG chronic inflammation mouse model: cleaved caspase-3 in MDSCs; assay type: in vivo; details: compared to inflamed-untreated mice
CD247 [2] = assay: CD247 expression in T-cells of CRC-mice; assay type: in vivo, mouse; details: splenocytes of CRC-mice
Method: (§1) Next, the effect of the given chemotherapies on the immune status was evaluated. This was performed by testing the function of the whole T-cell population (FIG. 9J) as well as the CD8^+ T-cells (FIG. 9K) in all experimental groups along with measurements of the expression levels of CD247 in CD3^+ (FIG. 9L) and in CD8^+ T-cells (FIG. 9M). T-cell proliferative response was assessed by monitoring cell divisions of gated CFSE-labeled Thy1.2^+ (CD90^+) T-cells upon TCR-CD28 mediated activation.

Gr1^+CD11b^+ MDSCs = assay: MDSC accumulation in colon, spleen and PBLs of CRC-mice; assay type: in vivo, mouse
TNFα, S100A9 = assay: TNFα and S100A9 mRNA in ex vivo cultured MDSCs (Real Time PCR); assay type: cell-based, mouse; details: 3 days
MDSCs [3] = assay: BCG chronic inflammation mouse model: MDSC levels; assay type: in vivo; details: PBLs and spleen, compared to inflamed-untreated mice
Method: (§2) Mice were injected intraperitoneally with 10 mg/kg body weight of Azoxymethan (AOM, purchased from Sigma-Aldrich (St. Louis, Mo., USA)) dissolved in physiological saline twice in two weeks intervals. Two weeks later, 2% dextran sulfate sodium (DSS, purchased from MP biochemicals Inc. (Santa Ana, Calif., USA)) was given in the drinking water over 7 days, followed by 14 days of regular water (15). This cycle was repeated twice. Animals were sacrificed and analyzed three weeks after the last treatment. To induce a pathology-free chronic inflammation, a previously described protocol subjecting mice to heat-killed Mycobacterium […] (BCG) treatment (16) was used.
(§3) Next, the immunoregulatory effects of 5FU and CPT11 were examined in a mouse model for chronic inflammation and associated immunosuppression (10), as described in the materials and method section above and in FIG. 13A. This experiment was performed in order to investigate whether the differential effects of the drugs are related to the presence of the tumor. Briefly, the mouse model for chronic inflammation was established by three repeated injections of heat-killed BCG bacteria. A day after the second BCG injection, mice were treated twice a week with 5FU, CPT11 or a 5FU/CPT11 combination. […] No changes in CD4^+Foxp3^+ Tregs percentage were detected (FIG. 13H), confirming that these chemotherapies specifically affect MDSCs.

MDSC = details: mice, reference (11); cited from earlier work
[4] = test system: MDSCs isolated from spleens of CRC-mice; assay: NO^− and ROS production in ex vivo cultured MDSCs; assay type: cell-based, mouse; details: 2.5 μmol/L, 24 h
[5] = test system: MDSCs isolated from spleens of CRC mice; assay: Cleaved caspase-3 in ex vivo cultured MDSCs, DCs and macrophages; assay type: cell-based, mouse
S100A8/9 = details: MDSCs from spleen of CRC-mice
Method: Cells isolated from the spleen or colon were analyzed by Western blotting for the expression of various proteins as previously described (16). The antibodies used for immunoblotting were: anti-S100A9, anti-S100A8, and anti-αTubulin. Specific antibodies were detected by anti-rabbit or anti-goat antibodies conjugated to horseradish peroxidase (Jackson Immunoresearch), followed by enhanced chemiluminescence and exposure at blotting reader (Bio-Rad software).
(§5) For that purpose the expression of the S100A8/9 pro-inflammatory proteins was assessed.

NK-cells = assay: BCG chronic inflammation mouse model: NK-cell mediated clearance of allogeneic cells; assay type: in vivo; details: spleen and PBLs of inflamed mice
MDSCs [6] = assay: NO^− and ROS production by MDSCs of treated CRC-mice (flow cytometry); assay type: in vivo, mouse
Method: Three weeks after the second DSS treatment mice were sacrificed and spleens were analyzed.

T-cells [7] = assay: CFSE T-cell proliferation assay, splenocytes of CRC-mice; assay type: in vivo, mouse; details: CFSE-labeled Thy1.2^+ T-cells, TCR-CD28 mediated activation, vs untreated CRC-mice
Method: as §1, with “Splenocytes or purified T-cells isolated by a magnetic column separation system (Miltenyi Biotec) were labeled with […] CFSE (Invitrogen) and subjected to TCR-mediated activation as previously described (16). Next,” for “Next,”

CD247 [8] = assay: BCG chronic inflammation mouse model: CD247 expression in T-cells; assay type: in vivo; details: spleen and PBLs of inflamed mice
Method: as §2
(§4) Next, it was assessed whether the 5FU and CPT11 opposite effects on MDSCs have different impacts on the host's immune competence. […] Since NK-cell activity is mediated via natural cytotoxicity receptors (NCRs), which associate with and depend on CD247, NK-cell in vivo function was assessed by monitoring the clearance of adoptively transferred allogeneic cells.

cleaved caspase-3 [9] = assay: Cleaved caspase-3 in splenic MDSCs of treated CRC-mice; assay type: in vivo, mouse
Method: Cleaved caspase-3 staining was performed using primary Rabbit anti-cleaved caspase-3 (Cell Signaling Technology, Asp175) and secondary FITC-horse anti-Rabbit antibody (Thermo Scientific).
Therefore, Splenic MDSCs from each group were analyzed for the expression of activated (cleaved) caspase-3 by flow cytometry analysis. […] Cleaved caspase-3 levels were then evaluated on the primary MDSCs, differentiated CD11c^+CD11b^+DCs and F4/80^+CD11b^+ macrophages.

MDSCs [10] = assay: Myeloid cell differentiation in vivo in CRC-mice
Method: Isolated mouse splenocytes and peripheral blood lymphocytes (PBLs) were subjected to cell surface staining as previously described (16), using the following antibodies (Biolegend): FITC-labeled anti-Gr1, and anti-CD11c; PE-labeled anti-F4/80, anti-CD3s, and anti-mNKp46; and biotinylated anti-CD11b detected with streptavidin-Cy5. Intracellular staining for CD247 was performed as previously described (16) by using FITC-labeled anti-CD247 or biotinylated anti-CD247 (lone H146), the latter detected with streptavidin-Cy5. Foxp3 staining was performed according to the manufacturer's instructions (Miltenyi Biotec). Cleaved caspase-3 staining was performed using primary Rabbit anti-cleaved caspase-3 (Cell Signaling Technology, Asp175) and secondary FITC-horse anti-Rabbit antibody (Thermo Scientific).
as §5

T-cells [11] = assay: BCG chronic inflammation mouse model: T-cell proliferation; assay type: in vivo; details: splenocytes of inflamed mice
Method: as §2
Splenocytes or purified T-cells isolated by a magnetic column separation system (Miltenyi Biotec) were labeled with […] CFSE (Invitrogen) and subjected to TCR-mediated activation as previously described (16).
as §4

CD247 [12] = assay: BCG chronic inflammation mouse model: CD247 expression in NK-cells; assay type: in vivo; details: chronically inflamed mice
Method: as §2, §4

MDSCs [13] = assay: BCG chronic inflammation mouse model: ROS and NO^− production by MDSCs; assay type: in vivo; details: splenic MDSCs, compared to inflamed-untreated mice
Method: as §2, §3

CRC-derived MDSC = assay: Ex vivo GM-CSF mediated myeloid-cell differentiation; assay type: cell-based, mouse; details: 10 ng/ml GM-CSF, 72 h, vs GM-CSF only

Structure (SMILES): O=c1[nH]cc(F)c(=O)[nH]1 [5FU, 5-fluoruracil]
- cleaved caspase-3 levels (cleaved caspase-3 [1]): elevated cleaved caspase-3 levels
- CD247 expression levels in T-cells (CD247 [2]): elevated levels
- MDSC numbers / infiltration in colon (Gr1^+CD11b^+ MDSCs; lamina propria and epithelium, flow cytometry, vs untreated CRC-mice): significantly reduced MDSC infiltration
- MDSC numbers in spleens (Gr1^+CD11b^+ MDSCs; vs untreated, CPT11 or 5FU/CPT11 treated CRC-mice): significantly decreased MDSC numbers
- mRNA levels of TNFα and S100A9 (TNFα, S100A9): decreased levels of these factors
- MDSC levels (MDSCs [3]): significantly reduced MDSC levels
- MDSC apoptosis and tumor regression (MDSC): selective MDSC apoptosis and tumor regression
- NO^− or ROS production in purified cultured MDSCs [4]: did not alter NO^− or ROS production
- 5FU-induced apoptosis (cleaved caspase-3), DCs and macrophages ([5]; ex vivo, 10 ng/ml GM-CSF, 0, 1.25, 2.5, and 5, 3 days): insensitive
- 5FU-induced apoptosis (cleaved caspase-3), primary MDSCs ([5]; ex vivo, 10 ng/ml GM-CSF, 0, 1.25, 2.5, and 5 mol/L, 3 days): evident only in non-differentiated MDSCs
- cleaved caspase-3 expression (MFI) in monocytic and granulocytic MDSCs ([5]; ex vivo, 2.5, 3 days, monocytic population more sensitive): enhanced cleaved caspase-3 expression
- cleaved caspase-3 in purified cultured MDSCs ([5]; ex vivo, various doses, 3 days, dose-dependent): cleaved caspase-3 up-regulation
- S100A8/9 mRNA and protein levels (S100A8/9): significant decrease in S100A8/9 mRNA and protein levels
- NK-cell activity (clearance of adoptively transferred allogeneic cells) (NK-cells): complete recovery of NK-cell activity
- NO^− production (MDSCs [6]; lamina propria and epithelial MDSCs, vs untreated CRC mice): significant reduction of NO^− production
- NO^− and ROS production (MDSCs [6]; splenic MDSCs, compared to untreated CRC-mice): significantly reduced NO^− and ROS production
- T-cell proliferative ability (T-cells [7]): did not affect T-cell proliferation
- CD247 expression in T-cells (CD247 [8]): significant recovery of CD247 expression
- cleaved caspase-3 expression in spleen MDSCs (cleaved caspase-3 [9]): significant increased cleaved caspase-3 expression
- matured antigen presenting cells (CD80 and MHCII expression) (MDSCs [10]): induced CD80 and MHCII expression
- myeloid cell differentiation in vivo (DCs and macrophages) (MDSCs [10]): significant shift towards differentiated DCs and macrophages
- T-cell proliferation (T-cells [11]): significant recovery
- CD247 expression in NK-cells (CD247 [12]): almost completely recovered
- ROS and NO^− production (MDSCs [13]): significantly reduced
- GM-CSF mediated CRC-derived MDSC differentiation (CRC-derived MDSC): enabled MDSC differentiation to DCs and macrophages
- tumor load within the colon (hematoxylin-eosin histopathology) (CRC-mice; monotherapy for three weeks, vs untreated CRC mice): decreased tumor load and recovery of colon architecture
- histopathological analysis of colon sections (hematoxylin-eosin) (CRC-mice; three weeks after second DSS treatment): only few aberrant crypt foci and tumors

From patent US20170261507A1, “Methods for Predicting and Monitoring Cancer Patients' Response to Teatment by Measuring Myeloid Derived Suppressor Cells (MDSCs)” (YISSUM RESEARCH DEVELOPMENT COMPANY OF THE HEBREW …, priority 2014, published 2017)
